Results on 24 compounds are retold here after patent publication US10106556B2, “Heterocyclic compound” (TAKEDA PHARMACEUTICAL COMPANY LIMITED, priority 2015, dated 2018).

The assay addresses T1, His-hMAGL (recombinant polyhistidine tagged human MAGL protein) (Homo sapiens, UniProt Q99685).
T1 construct: made in house; host or cells: E. coli BL21(DE3)
T1 sequence (Q99685 1-303): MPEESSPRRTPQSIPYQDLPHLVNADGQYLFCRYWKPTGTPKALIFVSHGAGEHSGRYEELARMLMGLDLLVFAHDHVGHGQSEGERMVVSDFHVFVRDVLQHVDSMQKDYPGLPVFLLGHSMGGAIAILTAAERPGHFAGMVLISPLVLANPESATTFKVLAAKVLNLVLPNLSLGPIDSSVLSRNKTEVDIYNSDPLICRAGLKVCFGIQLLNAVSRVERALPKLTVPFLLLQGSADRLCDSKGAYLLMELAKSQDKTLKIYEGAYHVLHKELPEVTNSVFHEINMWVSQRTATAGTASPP
Put plainly: Measurement of MAGL inhibitory activity (arachidonic acid production from 2-arachidonylglycerol, RapidFire-mass spectrometry). The settings on record: MAGL inhibitory rate at 10 μM test compound; 60 min preincubation with His-hMAGL, 2-arachidonylglycerol substrate, 10 min reaction at room temperature. In kind it is biochemical. An outline of the steps: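 Recombinant His-tagged human MAGL converted 2-arachidonylglycerol to arachidonic acid. Reactions received acetonitrile with 3 μM arachidonic acid-d8 as internal standard, and product was quantified by RapidFire SPE (C4) with negative-mode SRM mass spectrometry. Percent inhibition was calculated against compound-free and enzyme-free controls.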
By inhibition is commonly meant the relative decrease from the control value, in per cent. On to `N#Cc1ccc(Cl)cc1OCC1CN(C(=O)c2cc3c(cc2F)OCC(=O)N3)C1` [Example 137, 4-chloro-2-((1-((7-fluoro-3-oxo-3,4-dihydro-2H-1,4-benzoxazin-6-yl)carbonyl)azetidin-3-yl)methoxy)benzonitrile], for which the inhibition at 10 µM was 99%. As for `O=C1COc2cc(F)c(C(=O)N3CC(COc4ccc5[nH]ncc5c4)C3)cc2N1` [Example 156, 7-fluoro-6-((3-((1H-indazol-5-yloxy)methyl)azetidin-1-yl)carbonyl)-2H-1,4-benzoxazin-3(4H)-one], the inhibition at 10 µM turned out to be 100%. For `O=C1COc2cc(F)c(C(=O)N3CC(COc4ccc(Cl)cc4-c4ccc5c(c4)CCO5)C3)cc2N1` [Example 221, 6-((3-((4-chloro-2-(2,3-dihydro-1-benzofuran-5-yl)phenoxy)methyl)azetidin-1-yl)carbonyl)-7-fluoro-2H-1,4-benzoxazin-3(4H)-one], the inhibition at 10 µM was 102%. Consider `O=C1COc2cc(F)c(C(=O)N3CC(COc4c(F)cccc4Cl)C3)cc2N1` [Example 136, 6-((3-((2-chloro-6-fluorophenoxy)methyl)azetidin-1-yl)carbonyl)-7-fluoro-2H-1,4-benzoxazin-3(4H)-one], for which the inhibition at 10 µM was found to be 98%. With `O=C1COc2cc(F)c(C(=O)N3CC(COc4ccc(-c5ccncc5F)cc4F)C3)cc2N1` [Example 242, 7-fluoro-6-((3-((2-fluoro-4-(3-fluoropyridin-4-yl)phenoxy)methyl)azetidin-1-yl)carbonyl)-2H-1,4-benzoxazin-3(4H)-one] the figure was 100%; with `N#Cc1cccc(OCC2CCN(C(=O)c3cc4c(cc3F)OCC(=O)N4)CC2)c1Cl` [Example 75, 2-chloro-3-((1-((7-fluoro-3-oxo-3,4-dihydro-2H-1,4-benzoxazin-6-yl)carbonyl)piperidin-4-yl)methoxy)benzonitrile], 102%; with `O=C1COc2cc(F)c(C(=O)N3CC(COc4ccc(C(F)(F)F)c(F)c4)C3)cc2N1` [Example 277, 7-fluoro-6-((3-((3-fluoro-4-(trifluoromethyl)phenoxy)methyl)azetidin-1-yl)carbonyl)-2H-1,4-benzoxazin-3(4H)-one], 104%. On to `Cc1ccc(-c2cc(Cl)ccc2OCC2CN(C(=O)c3cc4c(cc3F)OCC(=O)N4)C2)cn1` [Example 190, 6-((3-((4-chloro-2-(6-methylpyridin-3-yl)phenoxy)methyl)azetidin-1-yl)carbonyl)-7-fluoro-2H-1,4-benzoxazin-3(4H)-one], for which the inhibition at 10 µM stood at 102%. Turning to `COC(=O)c1ccc(OCC2CCN(C(=O)c3cc4c(cc3F)OCC(=O)N4)CC2)c(Cl)c1` [Example 84, methyl-3-chloro-4-((1-((7-fluoro-3-oxo-3,4-dihydro-2H-1,4-benzoxazin-6-yl)carbony)piperidin-4-yl)methoxy)benzoate], the inhibition at 10 µM was 97%. For `O=C1COc2cc(F)c(C(=O)N3CC(COc4ccc(-c5cnn(C6CC6)c5)cc4F)C3)cc2N1` [Example 248, 6-((3-((4-(1-cyclopropyl-1H-pyrazol-4-yl)-2-fluorophenoxy)methyl)azetidin-1-yl)carbonyl)-7-fluoro-2H-1,4-benzoxazin-3(4H)-one], the inhibition at 10 µM turned out to be 98%.

As to `Cc1ccc(OCC2CN(C(=O)c3cc4c(cc3F)OCC(=O)N4)C2)cc1Cl` [Example 183, 6-((3-((3-chloro-4-methylphenoxy)methyl)azetidin-1-yl)carbonyl)-7-fluoro-2H-1,4-benzoxazin-3(4H)-one], the inhibition at 10 µM stood at 99%. As to `O=C1COc2ncc(C(=O)N3CCC(COc4ccccc4Cl)CC3)cc2N1` [Example 7, 7-((4-((2-chlorophenoxy)methyl)piperidin-1-yl)carbonyl)-1H-pyrido[2,3-b][1,4]oxazin-2(3H)-one], the inhibition at 10 µM came out at 100%.

For the compound `O=C1COc2cc(F)c(C(=O)N3CC(COc4cccc(Oc5ccccc5)c4)C3)cc2N1` [Example 129, 7-fluoro-6-((3-((3-phenoxyphenoxy)methyl)azetidin-1-yl)carbonyl)-2H-1,4-benzoxazin-3(4H)-one], the inhibition at 10 µM was 99%. With `O=C1COc2ncc(C(=O)N3CCC(COc4c(F)cccc4Cl)CC3)cc2N1` [Example 22, 7-((4-((2-chloro-6-fluorophenoxy)methyl)piperidin-1-yl)carbonyl)-1H-pyrido[2,3-b][1,4]oxazin-2(3H)-one], the inhibition at 10 µM was 95%. Then `O=C1COc2cc(F)c(C(=O)N3CC(OCc4ccc5scnc5c4)C3)cc2N1` [Example 344, 6-((3-(1,3-benzothiazol-5-ylmethoxy)azetidin-1-yl)carbonyl)-7-fluoro-2H-1,4-benzoxazin-3(4H)-one], with 99%; and `O=C1COc2cc(F)c(C(=O)N3CC(COc4ccc(Cl)cc4Cl)C3)cc2N1` [Example 76, 6-((3-((2,4-dichlorophenoxy)methyl)azetidin-1-yl)carbonyl)-7-fluoro-2H-1,4-benzoxazin-3(4H)-one], with 105%; and `O=C1COc2cc(F)c(C(=O)N3CC(COc4ccc5c(c4)CCO5)C3)cc2N1` [Example 155, 6-((3-((2,3-dihydro-1-benzofuran-5-yloxy)methyl)azetidin-1-yl)carbonyl)-7-fluoro-2H-1,4-benzoxazin-3(4H)-one], with 101%.

For `O=C1COc2cc(F)c(C(=O)N3CC(OCc4ccccc4F)C3)cc2N1` [Example 330, 7-fluoro-6-((3-((2-fluorobenzyl)oxy)azetidin-1-yl)carbonyl)-2H-1,4-benzoxazin-3(4H)-one], the inhibition at 10 µM came out at 102%. In the case of `O=C1COc2cc(F)c(C(=O)N3CC(COc4ccc(-c5cccc(F)n5)cc4F)C3)cc2N1` [Example 289, 7-fluoro-6-((3-((2-fluoro-4-(6-fluoropyridin-2-yl)phenoxy)methyl)azetidin-1-yl)carbonyl)-2H-1,4-benzoxazin-3(4H)-one], the inhibition at 10 µM worked out at 88%. For the compound `O=C1COc2cc(F)c(C(=O)N3CCC(COc4cccc5scnc45)CC3)cc2N1` [Example 186, 6-((4-((1,3-benzothiazol-4-yloxy)methyl)piperidin-1-yl)carbonyl)-7-fluoro-2H-1,4-benzoxazin-3(4H)-one], the inhibition at 10 µM worked out at 97%.

As for `Cn1cc(-c2ccc(OCC3CN(C(=O)c4cc5c(cc4F)OCC(=O)N5)C3)c(F)c2)cn1` [Example 246, 7-fluoro-6-((3-((2-fluoro-4-(1-methyl-1H-pyrazol-4-yl)phenoxy)methyl)azetidin-1-yl)carbonyl)-2H-1,4-benzoxazin-3(4H)-one], the inhibition at 10 µM stood at 96%. Take `O=C1COc2ccc(C(=O)N3CCC(COc4cccc5[nH]ncc45)CC3)cc2N1` [Example 64, 6-((4-((1H-indazol-4-yloxy)methyl)piperidin-1-yl)carbonyl)-2H-1,4-benzoxazin-3(4H)-one]: the inhibition at 10 µM was found to be 101%. For the compound `O=C1COc2cc(F)c(C(=O)N3CCC(COc4ccccc4)CC3)cc2N1` [Example 285, 7-fluoro-6-((4-(phenoxymethyl)piperidin-1-yl)carbonyl)-2H-1,4-benzoxazin-3(4H)-one], the inhibition at 10 µM was 98%. Then `Cc1ccc(COC2CN(C(=O)c3cc4c(cc3F)OCC(=O)N4)C2)c(F)c1` [Example 350, 7-fluoro-6-((3-((2-fluoro-4-methylbenzyl)oxy)azetidin-1-yl)carbonyl)-2H-1,4-benzoxazin-3(4H)-one], with 101%.
